The text below walks through data of US20230115534A1 (ARKUDA THERAPEUTICS, priority 2019, published 2023).

Structures can show the parent of a compound that is named as a salt.

In this experiment the test system is progranulin (PGRN). Put plainly: progranulin induction cellular assay (PGRN assay), ELISA-based readout. To be noted: PGRN assay as described: mouse primary microglia, primary cortical neurons and BV-2 cell lines; secreted mouse PGRN in medium by ELISA; cell type for Table B not specified. As for the experimental part:
Cellular Assays: To measure the efficacy of compounds, a progranulin induction cellular assay in mouse primary microglia (pMG), primary cortical neurons, and BV-2 cell lines is used. BV-2 cells are split the day before plating into a 96 well plate format at approximately 80%. Cells should be plated the day before and allowed for 1 hour attachment period and for 16 hour incubation. Levels of progranulin secreted into the cell culture medium or retained in the cell lysate can be quantified using an ELISA-based readout and measurement of secreted mouse PGRN in the medium was assessed by the methodology published by Ghidoni et al. 2012. Standard ELISA kits to measure PGRN are available from vendors such as Adipogen, R&D, and Biovendor.
Table B below presents the results of a PGRN assay as described above.
As usually defined, the EC50 is the midpoint of the concentration-response curve. The low end stands for greater potency, the high end for weaker potency. On to `NC12CC(NC(=O)N3CCc4ccccc4C3c3ccc(F)cc3F)(C1)C2` (single isomer, unassigned) [Compound 4138, N-(3-aminobicyclo[1.1.1]pentan-1-yl)-1-(2,4-difluorophenyl)-3,4-dihydroisoquinoline-2(1H)-carboxamide], for which the midpoint of the response, the EC50, lay at 5590 nM.
Consider `CN(C)C12CC(NC(=O)N3CCc4ccccc4[C@@H]3c3ccc(F)cc3)(C1)C2` [Compound 4022, (S)—N-(3-(dimethylamino)bicyclo[1.1.1]pentan-1-yl)-1-(4-fluorophenyl)-3,4-dihydroisoquinoline-2(1H)-carboxamide], for which the EC50 was 5330 nM.
Next, `CN[C@H]1C[C@@H](N(C)C(=O)N2CCc3ccccc3[C@@H]2c2ccc(F)cc2)C1` [Compound 4067]: 913 nM.
The figure for `CN(C)[C@H]1C[C@@H](OC(=O)N2CCc3ccccc3[C@@H]2c2ccc(F)cc2)C1` [Compound 4127] is 773 nM.
The figure for `CCN[C@H]1C[C@H](OC(=O)N2CCc3ccccc3[C@@H]2c2ccc(F)cc2)C1` [Compound 4130] is 740 nM.
`CN(C)[C@H]1C[C@@H](CC(=O)N2CCc3ccccc3[C@@H]2c2ccc(F)cc2)C1` [Compound 4126] registered an EC50 of 571 nM.
Next, `N[C@H]1C[C@@H](NC(=O)N2CCc3ccccc3[C@@H]2c2ccc(F)cc2)C1` [Compound 4034, (S)—N-(cis-3-aminocyclobutyl)-1-(4-fluorophenyl)-3,4-dihydroisoquinoline-2(1H)-carboxamide]: 370 nM; `N[C@H]1C[C@@H](NC(=O)N2CCc3ccccc3[C@@H]2c2ccc(F)cc2)CC(F)(F)C1` (single isomer, unassigned) [Compound 4142]: 810 nM.
`CN[C@H]1C[C@@H](NC(=O)N2CCc3ccccc3[C@@H]2c2ccc(F)cc2)C1` [Compound 4045, (S)-1-(4-fluorophenyl)-N-(cis-3-(methylamino)cyclobutyl)-3,4-dihydroisoquinoline-2(1H)-carboxamide hydrochloride] yielded an EC50 of 600 nM.
The figure for `CS(=O)(=O)CCNC12CC(NC(=O)N3CCc4ccccc4[C@@H]3c3ccc(F)cc3)(C1)C2` [Compound 4007, (S)-1-(4-fluorophenyl)-N-(3-((2-(methylsulfonyl)ethyl)amino)bicyclo[1.1.1]pentan-1-yl)-3,4-dihydroisoquinoline-2(1H)-carboxamide 2,2,2-trifluoroacetate] is more than 10000 nM.
The figure for `CS(=O)(=O)CCNC12CC(N(CCS(C)(=O)=O)C(=O)N3CCc4ccccc4[C@@H]3c3ccc(F)cc3)(C1)C2` [Compound 4008, (S)-1-(4-fluorophenyl)-N-(2-(methylsulfonyl)ethyl)-N-(3-((2-(methylsulfonyl)ethyl)amino)bicyclo[1.1.1]pentan-1-yl)-3,4-dihydroisoquinoline-2(1H)-carboxamide] is more than 10000 nM; for `CN(C)[C@H]1C[C@H](OC(=O)N2CCc3ccccc3[C@@H]2c2ccc(F)cc2)C1` [Compound 4128] it is 319 nM.
The figure for `CNC12CC(N(C)C(=O)N3CCc4ccccc4[C@@H]3c3ccc(F)cc3)(C1)C2` [Compound 4009, (S)-1-(4-fluorophenyl)-N-methyl-N-(3-(methylamino)bicyclo[1.1.1]pentan-1-yl)-3,4-dihydroisoquinoline-2(1H)-carboxamide] is more than 10000 nM; for `NC[C@H]1CC[C@H]1OC(=O)N1CCc2ccccc2[C@@H]1c1ccc(F)cc1` [Compound 4065] it is 821 nM.
For `NC12CC(OC(=O)N3CCc4ccccc4[C@@H]3c3ccccc3)(C1)C2` [Compound 4136, 3-aminobicyclo[1.1.1]pentan-1-yl (S)-1-phenyl-3,4-dihydroisoquinoline-2(1H)-carboxylate], the EC50 turned out to be 604 nM.
The figure for `CS(=O)(=O)NC12CC(OC(=O)N3CCc4ccccc4[C@@H]3c3ccc(F)cc3)(C1)C2` [Compound 4018, 3-(Methylsulfonamido)bicyclo[1.1.1]pentan-1-yl (S)-1-(4-fluorophenyl)-3,4-dihydroisoquinoline-2(1H)-carboxylate] is more than 10000 nM; for `NC[C@]1(O)C[C@@H](C(=O)N2CCc3ccccc3[C@@H]2c2ccc(F)cc2)C1` (single isomer, unassigned) [Compound 4153] it is 130 nM; for `N[C@H]1C[C@@H](CC(=O)N2CCc3ccccc3[C@@H]2c2ccc(F)cc2)C1` [Compound 4121] it is 365 nM.
Consider `N[C@H]1CC[C@H]1COC(=O)N1CCc2ccccc2[C@@H]1c1ccc(F)cc1` [Compound 4133, ((1R,2S)-2-aminocyclobutyl)methyl (S)-1-(4-fluorophenyl)-3,4-dihydroisoquinoline-2(1H)-carboxylate], for which the EC50 stood at 864 nM.
For `CS(=O)(=O)NC12CC(NC(=O)N3CCc4ccccc4[C@@H]3c3ccc(F)cc3)(C1)C2` [Compound 4017, (S)-1-(4-fluorophenyl)-N-(3-(methylsulfonamido)bicyclo[1.1.1]pentan-1-yl)-3,4-dihydroisoquinoline-2(1H)-carboxamide], the EC50 is more than 10000 nM.
The figure for `NC12CC(NC(=O)N3CCc4ccccc4[C@H]3c3ccc(F)cc3)(C1)C2` [Compound 4003, (R)—N-(3-aminobicyclo[1.1.1]pentan-1-yl)-1-(4-fluorophenyl)-3,4-dihydroisoquinoline-2(1H)-carboxamide] is 720 nM; for `O=C(OC12CC(N3CCCC3=O)(C1)C2)N1CCc2ccccc2[C@@H]1c1ccc(F)cc1` [Compound 4025, 3-(2-Oxopyrrolidin-1-yl)bicyclo[1.1.1]pentan-1-yl (S)-1-(4-fluorophenyl)-3,4-dihydroisoquinoline-2(1H)-carboxylate] it is more than 10000 nM; for `C[C@]1(N)C[C@H](NC(=O)N2CCc3ccccc3[C@@H]2c2ccc(F)cc2)C1` [Compound 4042, (S)—N-(trans-3-amino-3-methylcyclobutyl)-1-(4-fluorophenyl)-3,4-dihydroisoquinoline-2(1H)-carboxamide hydrochloride] it is 59 nM.
Next, `NC[C@H]1C[C@H](C(=O)N2CCc3ccccc3[C@@H]2c2ccc(F)cc2)C1` [Compound 4149, (trans-3-(aminomethyl)cyclobutyl)((S)-1-(4-fluorophenyl)-3,4-dihydroisoquinolin-2(1H)-yl)methanone]: 245 nM; `CNC12CC(CCC(=O)N3CCc4ccccc4C3c3ccc(F)cc3)(C1)C2` [Compound 4058, (S)-1-(1-(4-fluorophenyl)-3,4-dihydroisoquinolin-2(1H)-yl)-3-(3-(methylamino)bicyclo[1.1.1]pentan-1-yl)propan-1-one hydrochloride]: 900 nM.
Consider `O=C(NC12CC(N3CCCC3=O)(C1)C2)N1CCc2ccccc2[C@@H]1c1ccc(F)cc1` [Compound 4024, (S)-1-(4-fluorophenyl)-N-(3-(2-oxopyrrolidin-1-yl)bicyclo[1.1.1]pentan-1-yl)-3,4-dihydroisoquinoline-2(1H)-carboxamide], for which the EC50 is more than 10000 nM.
The figure for `NC12CC(CC(=O)N3CCc4ccccc4C3c3ccc(F)cc3)(C1)C2` [Compound 4056, (S)-2-(3-aminobicyclo[1.1.1]pentan-1-yl)-1-(1-(4-fluorophenyl)-3,4-dihydroisoquinolin-2(1H)-yl)ethan-1-one] is 1440 nM; for `CC(=O)NC12CC(NC(=O)N3CCc4ccccc4[C@@H]3c3ccc(F)cc3)(C1)C2` [Compound 4016, (S)—N-(3-acetamidobicyclo[1.1.1]pentan-1-yl)-1-(4-fluorophenyl)-3,4-dihydroisoquinoline-2(1H)-carboxamide] it is more than 10000 nM.
Next, `N[C@@H]1CC[C@@H]1COC(=O)N1CCc2ccccc2[C@@H]1c1ccc(F)cc1` [Compound 4132, ((1S,2R)-2-aminocyclobutyl)methyl (S)-1-(4-fluorophenyl)-3,4-dihydroisoquinoline-2(1H)-carboxylate]: 1010 nM.
As for `C[C@]1(NC(=O)N2CCc3ccccc3[C@@H]2c2ccc(F)cc2)C[C@H](N)C1` [Compound 4053, (S)—N-((trans)-3-amino-1-methylcyclobutyl)-1-(4-fluorophenyl)-3,4-dihydroisoquinoline-2(1H)-carboxamide], the concentration giving a half-maximal response (EC50) is 31 nM.
The figure for `NC12CC(NC(=O)N3CCc4ccccc4[C@@H]3c3ccc(F)cc3)(C1)C2` [Compound 4002, (S)—N-(3-aminobicyclo[1.1.1]pentan-1-yl)-1-(4-fluorophenyl)-3,4-dihydroisoquinoline-2(1H)-carboxamide] is 266 nM; for `CN(C)[C@H]1C[C@@H](NC(=O)N2CCc3ccccc3[C@@H]2c2ccc(F)cc2)C1` [Compound 4068] it is 290 nM.
Next, `O=C(NC12CC(N3CCCC3)(C1)C2)N1CCc2ccccc2[C@@H]1c1ccc(F)cc1` [Compound 4012, (S)-1-(4-fluorophenyl)-N-(3-(pyrrolidin-1-yl)bicyclo[1.1.1]pentan-1-yl)-3,4-dihydroisoquinoline-2(1H)-carboxamide]: 7810 nM; `CC(C)(OC(=O)N1CCc2ccccc2C1c1ccc(F)cc1)C12CC(N)(C1)C2` [Compound 4048, 2-(3-Aminobicyclo[1.1.1]pentan-1-yl)propan-2-yl (S)-1-(4-fluorophenyl)-3,4-dihydroisoquinoline-2(1H)-carboxylate]: 1090 nM; `CN(C(=O)N1CCc2ccccc2[C@@H]1c1ccc(F)cc1)C12CC(N)(C1)C2` [Compound 4010, (S)—N-(3-aminobicyclo[1.1.1]pentan-1-yl)-1-(4-fluorophenyl)-N-methyl-3,4-dihydroisoquinoline-2(1H)-carboxamide]: more than 10000 nM.
